What was measured:
[1] = Examination of the metabolism of acetylsalicylic acid: ASA and SA in plasma by HPLC after gel applied onto skin; format: in vivo, New Zealand giant white rabbits; conditions: for concentration at 0 h / concentration at 0.25 h / concentration at 0.5 h / concentration at 0.75 h / concentration at 0.75 hour / concentration at 1 h / concentration at 1.5 h / concentration at 2 h / concentration at 3 h / concentration at 4 h: pH 6.5, Salicylic acid and acetysalicylic acid contents of blood samples
Description: The tests were performed on 6 week old male New Zealand giant white rabbits. […] The hair was shaved off from the backs of the rabbits, and 0.6 g of a gel with the following composition was applied onto the skin:
Blood samples were taken periodically as indicated in Table 1 from the jugular veins of the animals, the samples were centrifuged to separate the plasma, and the acetylsalicylic acid (ASA) and salicylic acid (SA) contents of the samples were measured by HPLC. The centrifuged plasma was stored at −22° C. until the time of analysis in order to avoid any ex vivo metabolism due to the presence of esterases in the plasma.
The above test was repeated on the same animals with the difference that 0.01 g of sodium carbonate was also added to the gel and the gel was buffered to pH 6.5.

[2] = Urine analyses on rabbits kept on specific calcium-rich diet; format: in vivo
Description: From the data of Table 2 it appears that the amount of acetylsalicylic acid present in the blood of the animals stabilized after a short induction period. […] This test was performed on healthy animals, where no dissolution of calcification and no formation of calcium acetylsalicylate due to the dissolution took place.

[3] = male, New Zealand giant white, rabbit, in vivo
[4] = male, New Zealand giant white, rabbit, in vivo, 0 h, pH 6.5
[5] = male, New Zealand giant white, rabbit, in vivo, 0.75 h, pH 6.5
[6] = male, New Zealand giant white, rabbit, in vivo, 0.75 hour, pH 6.5
[7] = male, New Zealand giant white, rabbit, in vivo, Salicylic acid and acetysalicylic acid contents of blood samples

Row | Compound | Salicylic acid and acetysalicylic acid contents of blood samples [1, 4] | Salicylic acid and acetysalicylic acid contents of blood samples [1, 5] | Salicylic acid and acetysalicylic acid contents of blood samples [1, 6] | concentration at 0.75 hours [1, 7] [µg/mL] | concentration at 0 h [1, 3] [µg/mL] | concentration at 0.25 h [1, 3] [µg/mL] | concentration at 0.5 h [1, 3] [µg/mL] | concentration at 0.75 h [1, 3] [µg/mL] | concentration at 0.75 hour [1, 3] [µg/mL] | concentration at 1 h [1, 3] [µg/mL] | concentration at 1.5 h [1, 3] [µg/mL] | concentration at 2 h [1, 3] [µg/mL] | concentration at 3 h [1, 3] [µg/mL] | concentration at 4 h [1, 3] [µg/mL] | also measured
1 | CC(=O)Oc1ccccc1C(=O)O [ASA, acetylsalicylic acid] | 0 μg/ml of plasma | 9.68 μg/ml of plasma | 8.84 μg/ml of plasma | 0.115 | 0 | 0.57 | 5.24 | 9.44 | 7.9 | 7.7 | 7.12 | 6.98 | 5.65 | 4.55 | time within which acetylsalicylic acid metabolizes in the body to salicylic acid and acetic acid [1, 3]: ≤ 15 min; Salicylic acid and acetysalicylic acid contents of blood samples ([1]; male, New Zealand giant white, rabbit, in vivo, 0 hours): 0 μg/ml of plasma; Salicylic acid and acetysalicylic acid contents of blood samples ([1]; male, New Zealand giant white, rabbit, in vivo, 1.75 hours): 0.136 μg/ml of plasma; acetylsalicylic acid remained un-metabolized ([1]; male, New Zealand giant white, rabbit, in vivo, 4 h, pH 6.5): 25%; concentration at 0 hours [1, 7]: 0 µg/mL; concentration at 1 hours [1, 7]: 0.098 µg/mL; concentration at 1.75 hours [1, 7]: 0.076 µg/mL; concentration at 2 hours [1, 7]: 0.163 µg/mL; Salicylic acid and acetysalicylic acid contents of blood samples ([1]; rabbit, in vivo): BLD; metabolism of acetylsalicylic acid (observation) ([1]; rabbit, in vivo, pH 6.5): extreme slow down in the metabolism; start of metabolism of acetylsalicylic acid ([1]; rabbit, in vivo, pH 6.5): third-fourth hour
2 | O=C(O)c1ccccc1O [SA, salicylic acid] | 0 μg/ml of plasma | 2.54 μg/ml of plasma | 1.97 μg/ml of plasma | 40.8 | 0 | 0.9 | 0.98 | 2.81 | 2.1 | 3.02 | 2.69 | 3.11 | 7.98 | 12.2 | Salicylic acid and acetysalicylic acid contents of blood samples ([1]; Rabbit 1, 0 hours, 0.6 g gel without carbonate on skin): BLD; Salicylic acid and acetysalicylic acid contents of blood samples ([1]; Rabbit 2, 0 hours, 0.6 g gel without carbonate on skin): BLD; Salicylic acid and acetysalicylic acid contents of blood samples ([1]; Rabbit 3, 0 hours, 0.6 g gel without carbonate on skin): BLD; Salicylic acid and acetysalicylic acid contents of blood samples ([1]; Rabbit 4, 0 hours, 0.6 g gel without carbonate on skin): BLD; salicylic acid content of the blood samples relative to the acetylsalicylic acid content ([1]; gel without carbonate, Table 1): at least one hundredfold
3 | calcium acetylsalicylate |  |  |  |  |  |  |  |  |  |  |  |  |  |  | excretion / further metabolism [2]: can no longer be metabolized but is excreted from the organism in unchanged form

— patent publication US20050004084A1, “Aspirin-containing trasdermal pharmaceutical composition for the treatment of calcification” (priority 2001, published 2005)
